Experimental data from ChEMBL document CHEMBL1152691, “Design and synthesis of novel 2',3'-dideoxy-4'-selenonucleosides as potential antiviral agents” (Bioorg Med Chem, 2008).
Calls of active or inactive are those of the source. The rule behind the calls is not given here.

Test system: Human immunodeficiency virus
Assay: Antiviral activity against HIV
Type: functional, organism-based

SMILES | Activity
O=c1ccn([C@H]2CC[C@@H](CO)[Se]2)c(=O)[nH]1 | inactive
Cc1cn([C@H]2CC[C@@H](CO)[Se]2)c(=O)[nH]c1=O | inactive
Nc1ccn([C@H]2CC[C@@H](CO)[Se]2)c(=O)n1 | inactive
